Measurements reported in patent publication US4980343A, “Aminooxodihydroisoindoloquinazoline carcinostatic agents” (Bayer Aktiengesellschaft, priority 1989, dated 1990).
Converted amounts (≈) assume the structure as drawn. “Also recorded” adds a separate entry of the source. Structures can show the parent of a compound that is named as a salt.

How the values were obtained:
[1] = stability of B in the presence of peptidases or human plasma; type: in vitro ADME; details: not cleaved back to A
E. coli Neumann [2] = experiment: therapeutic efficacy: survival of female CF1 mice infected intraperitoneally with E. coli Neumann; type: in vivo; details: for survival of the animals (number of 10 mice): single dose 30 min. after infection, until sixth day
Experimental: To measure the therapeutic efficacy, 10 female CF1 mice each group were infected by intraperitoneal injection of 3×10^7 cells of E. coli Neumann. For treatment, one single dose of drug was given intravenously 30 min. after the infection. The survival of the animals was recorded daily until the sixth day after infection: […]

E. coli Neumann [3] = experiment: minimal inhibitory concentrations (MICs) by agar dilution method; type: cell-based
Experimental: The minimal inhibitory concentrations (MICs) were determined by agar dilution method. Series of agar plates with Iso-Sensitest agar (Oxoid) were prepared which contained the test substances at twofold increasing concentrations. The agar plates were inoculated by using a multipoint inoculator (Denley). For this purpose, overnight cultures of the bacterial test strains were diluted appropriately so that each inoculation point contained approx. 10^4 cells. The inoculated agar plates were incubated at 37° C. and bacterial growth was read after 20 hours.

[4] = solubility in water and water containing solvents; details: for solubility: water
[5] = stability of 4, 6 or 12 in aqueous buffered solutions (μ = 0.15); type: physicochemical
Experimental: The hydrolysis of 4, 6 or 12 in aqueous buffered solutions at various pH and at an ionic strength of 0.15 (NaCl) were measured by analyzing aliquots at appropriate intervals using HPLC. In the HPLC analysis both the disappearance of 4, 6 or 12 and the appearance of 1 were monitored. Rate constants were calculated from the first-order plots of the disappearance of 4, 6 or 12 versus time.

[6] = stability of 4, 6 and 12 in mice plasma at 37° C.; type: in vitro ADME; details: for hydrolysis to 1: mice plasma; for kobs / half-life: mice, heparin; for half-life: mouse, plasma
Experimental: (§1) A solution of approximately 2.0 mg of 4, 6 or 12 in 100 μl of water was added to 2 ml of either human or mice plasma. The resulting solution was placed in water bath at 37° C. Samples were withdrawn at appropriate time intervals and proteins were precipitated with 250 μl of acetonitrile, vortexed for 30 sec., then centrifuged for 10 min at 2200 rpm. […] Apparent first-order rate constants were obtained by plotting the disappearance the derivatives 4, 6 or 12 versus time on semilogarithmic plot and the results are shown in table 12.

[7] = stability of 4, 6 and 12 in human plasma at 37° C.; type: in vitro ADME; details: for hydrolysis to 1: human plasma; for half-life: plasma
Experimental: as §1

[8] = hydrolysis of 14 and 4a in human plasma at 37.0° C.; type: in vitro ADME
Experimental: (§2) The hydrolysis of 14 in human plasma was studied. A solution containing 2.0 mg of 14 in 200 μl of water was mixed with 2 ml of human plasma (sodium citrate was used as anticoagulant). The resulting mixture was placed in water bath at 37.0° C. Samples were withdrawn at appropriate time intervals and proteins were precipitated with 250 μl of acetonitrile, vortexed for 30 sec, the centrifuged for 15 min at 2200 rpm. A 100 μl sample of the supernatent was mixed with 250 μl of H2 O and the resulting solution was analyzed by HPLC. […] The chemical hydrolysis of 14 (5.5×10^-5 M) in 0.05M phosphate buffer pH 7.4 and ionic strength of 0.15M (NaCl) at 37.0° C. was studied. Samples were withdrawn and analyzed at appropriate time intervals.

[9] = chemical hydrolysis of 14 in 0.05M phosphate buffer pH 7.4 at 37.0° C.; type: physicochemical; details: 5.5×10^-5 M, 0.05M phosphate pH 7.4, ionic strength 0.15M (NaCl)
Experimental: as §2

[10] = Acetate (0.05M), 25° C., pH 5.0, initial conc. 0.024 (4, 12), 0.018 (6) mg/ml
[11] = Phosphate (0.05M), 37° C., pH 7.4, initial conc. 0.02 mg/ml
[12] = acetate buffer (0.05m), pH 5, Acetate (0.05M), 25° C., pH 5.0, initial conc. 0.024 (4, 12), 0.018 (6) mg/ml, 6 and 12 estimated values (*)
[13] = phosphate buffer (0.05m), pH 7.4, Phosphate (0.05M), 25° C., pH 7.4, initial conc. 0.02 mg/ml, 4 estimated value (*)
[14] = phosphate buffer (0.05m), pH 7.4, Phosphate (0.05M), 37° C., pH 7.4, initial conc. 0.02 mg/ml
[15] = water, pH 4.5, Water, 25° C., initial conc. 10.0 mg/ml, pH 4.5 (4), 4.31 (6), 4.54 (12), estimated values (*)
[16] = water, pH 5.9, Water, 25° C., initial conc. 0.1 mg/ml, pH 5.9 (4), 5.46 (6), 6.1 (12), estimated values (*)
[17] = Phosphate (0.05M), 25° C., pH 7.4, initial conc. 0.02 mg/ml
[18] = Water, 25° C., initial conc. 0.1 mg/ml, pH 5.46 (6), 6.1 (12)
[19] = Water, 25° C., initial conc. 10.0 mg/ml, pH 4.31 (6), 4.54 (12)
[20] = concentration of obtainable aqueous solutions, hydrochloric acid salts (Example 5)

CC(N)C(=O)N1CCN(c2cc3c(cc2F)c(=O)c(C(=O)O)cn3C2CC2)CC1 (centres unmarked) [B]
stability in the presence of peptidases or human plasma [1]: stable
survival of the animals (number of 10 mice) (E. coli Neumann [2]; 0.06 mg/kg i.v.): 0
survival of the animals (number of 10 mice) (E. coli Neumann [2]; 0.25 mg/kg i.v.): 1
survival of the animals (number of 10 mice) (E. coli Neumann [2]; 0.5 mg/kg i.v.): 1
effectiveness against E. coli Neumann in vivo (E. coli Neumann [2]; in words): only poorly effective
MIC (E. coli Neumann [3]; Escherichia coli, E. coli Neumann, agar dilution, Iso-Sensitest agar, 37° C., 20 hours): 0.5 µg/mL (≈ 1.24 µM)
effectiveness against E. coli Neumann in vitro (E. coli Neumann [3]; in words): only poorly effective

Nc1ccc2c(c1)CN1C(=O)c3ccccc3C1=N2 [Compound 1, aminooxodihydroisoindoloquinazoline]
solubility in water (in words) ([4]; water containing solvents): only poorly soluble; also recorded: nearly insoluble

C[C@H](N)C(=O)Nc1ccc2c(c1)CN1C(=O)c3ccccc3C1=N2 [Compound 4, N-l-alanyl-AQ-monohydrochloride]
kobs [5, 10]: 0.0016 h⁻¹
kobs [5, 11]: 0.0044 h⁻¹
half-life [5, 12]: 17.8 days
half-life [5, 13]: > 8.33 days
half-life [5, 14]: 6.58 days
half-life [5, 15]: > 20 days
half-life [5, 16]: > 20 days
hydrolysis to 1 [6]: quantitative hydrolysis
kobs [6]: 0.033 min⁻¹
half-life [6]: 0.355 h
solubility ([4]; solubility in water, hydrochloric acid salt, water (Example 5)): > 25 mg/mL
kobs ([7]; human 1, citrate): 0.025 min⁻¹
kobs ([7]; human 2, citrate): 0.022 min⁻¹
hydrolysis to 1 [7]: quantitative hydrolysis
half-life ([7]; human, human 1, citrate): 0.46 h
half-life ([7]; human, human 2, citrate): 0.512 h

C[C@H](N)C(=O)Nc1ccc2c(c1)CN1C(=O)c3ccccc3C1=N2 [Compound 4a, N-l-alanyl-AQ]
half-life ([8]; human plasma, FIG. 1, 4a formed from 14): ~0.333 h

CC(C)C[C@H](N)C(=O)Nc1ccc2c(c1)CN1C(=O)c3ccccc3C1=N2 [Compound 6, N-l-leucine derivative of AQ]
kobs [5, 10]: 0.0011 h⁻¹
kobs [5, 17]: 0.00411 h⁻¹
kobs [5, 11]: 0.0086 h⁻¹
kobs [5, 18]: 0.00061 h⁻¹
kobs [5, 19]: 0.000146 h⁻¹
half-life [5, 12]: 26 days
half-life [5, 13]: 7.03 days
half-life [5, 14]: 3.36 days
half-life [5, 15]: 198 days
half-life [5, 16]: 47 days
hydrolysis to 1 [6]: quantitative hydrolysis
kobs [6]: 0.0185 min⁻¹
half-life [6]: 0.623 h
solubility [4, 20]: > 25 mg/mL
hydrolysis to 1 [7]: quantitative hydrolysis
kobs ([7]; human, citrate): 0.0057 min⁻¹
half-life ([7]; human, citrate): 2.02 h

NCCCC[C@H](N)C(=O)Nc1ccc2c(c1)CN1C(=O)c3ccccc3C1=N2 [Compound 12, N-l-lysine dihydrochloride derivative of AQ]
kobs [5, 10]: 0.00115 h⁻¹
kobs [5, 17]: 0.00258 h⁻¹
kobs [5, 11]: 0.0103 h⁻¹
kobs [5, 18]: 0.00078 h⁻¹
kobs [5, 19]: 0.000267 h⁻¹
half-life [5, 12]: 25 days
half-life [5, 13]: 11.2 days
half-life [5, 14]: 2.8 days
half-life [5, 15]: 108 days
half-life [5, 16]: 37 days
hydrolysis to 1 [6]: quantitative hydrolysis
kobs [6]: 0.0048 min⁻¹
half-life [6]: 2.43 h
solubility [4, 20]: > 25 mg/mL
solubility ([4]; water solubility, dihydrochloride, freeze dried (Example 3)): > 20 mg/mL
hydrolysis to 1 [7]: quantitative hydrolysis
kobs ([7]; human, citrate): 0.005 min⁻¹
half-life ([7]; human, citrate): 2.31 h

C[C@H](NC(=O)CN)C(=O)Nc1ccc2c(c1)CN1C(=O)c3ccccc3C1=N2 [Compound 14, L-Gly-Ala-derivative of AQ]
half-life at 55 µM [9]: 60 h
half-life ([8]; human plasma (citrate), 2.0 mg of 14 in 200 μl water + 2 ml plasma, read-out: half life of hydrolysis of 14 to 4a): 0.233 ± 0.0167 h
